37 compounds from patent USRE50724E1, “4-membered ring carboxamides used as nematicides” (SYNGENTA CROP PROTECTION AG, priority 2013, dated 2026) can be followed below.

The test system of the assay is Heterodera schachtii. In words: Heterodera schachtii (sugar beet cyst nematode), nematicide, contact activity: juvenile paralysis in 16-well assay plates. It counts as in vivo. Conditions: read-out: nematode immobilization compared to the untreated control. As to the method: Heterodera schachtii (Sugar Beet Cyst Nematode), Nematicide, Contact Activity
The tested application rate of each compound was 200 ppm. All solutions were brought to a concentration of 400 ppm, respectively, as they were subsequently diluted by adding the equivalent amount of water containing juvenile nematodes. After preparation of the suspensions, 1 ml of each suspension and concentration was transferred to 16-well assay plates with a total of three replicates per treatment. Approximately 500 juveniles of Heterodera schachtii were added in 1 ml of water to each well. Nematodes in water served as controls. The plates were placed in a dark box and stored at room temperature. Nematode paralysis was determined after 24 hours incubation at 25° C. in darkness.

Where [1] appears, read: 200 ppm, approx. 500 juveniles per well, 24 hours incubation at 25° C. in darkness.

Each structure is given as a SMILES string. Read-outs that look alike come from different tables or passages of the source. Where only a bound is given, the exact number is not on record here.

For the compound `O=C(N[C@H]1CC[C@H]1c1ccc(Cl)cc1Cl)c1c(F)cccc1C(F)(F)F` [Compound 61.84, N-[(1S,2S)-2-(2,4-dichlorophenyl)cyclobutyl]-2-fluoro-6-(trifluoromethyl)benzamide], the pest or weed control at 200 ppm under setting [1] was more than 75%.

As to `O=C(N[C@H]1CC[C@H]1c1ccc(Cl)cc1Cl)C1=C(C(F)(F)F)OCCS1` [Compound 61.85, N-[(1S,2S)-2-(2,4-dichlorophenyl)cyclobutyl]-6-(trifluoromethyl)-2,3-dihydro-1,4-oxathiine-5-carboxamide], the pest or weed control at 200 ppm under setting [1] was more than 75%. The same measure, in the same setting: the figure for `CC1=C(C(=O)N[C@H]2CC[C@H]2c2ccc(Cl)cc2Cl)SCCO1` [Compound 61.86, N-[(1S,2S)-2-(2,4-dichlorophenyl)cyclobutyl]-6-methyl-2,3-dihydro-1,4-oxathiine-5-carboxamide] is more than 75%. Same read-out and setting: to `O=C(N[C@H]1CC[C@H]1c1ccc(Cl)cc1Cl)c1ccsc1Br` [Compound 61.87, 2-bromo-N-[(1S,2S)-2-(2,4-dichlorophenyl)cyclobutyl]thiophene-3-carboxamide] belongs more than 75%; to `O=C(N[C@H]1CC[C@H]1c1ccc(Cl)cc1Cl)c1cscn1` [Compound 61.88, N-[(1S,2S)-2-(2,4-dichlorophenyl)cyclobutyl]-1,3-thiazole-4-carboxamide], more than 75%; to `O=C(N[C@H]1CC[C@H]1c1ccc(Cl)cc1Cl)c1ccccc1Cl` [Compound 61.89, 2-chloro-N-[(1S,2S)-2-(2,4-dichlorophenyl)cyclobutyl]benzamide], more than 75%. Still for that read-out and setting: to `O=C(N[C@H]1CC[C@H]1c1ccc(Cl)cc1Cl)c1ncccn1` [Compound 61.90, N-[(1S,2S)-2-(2,4-dichlorophenyl)cyclobutyl]pyrimidine-2-carboxamide] belongs more than 75%; to `N#Cc1ccccc1C(=O)N[C@H]1CC[C@H]1c1ccc(Cl)cc1Cl` [Compound 61.91, 2-cyano-N-[(1S,2S)-2-(2,4-dichlorophenyl)cyclobutyl]benzamide], more than 75%; to `Cc1cccnc1C(=O)N[C@H]1CC[C@H]1c1ccc(Cl)cc1Cl` [Compound 61.92, N-[(1S,2S)-2-(2,4-dichlorophenyl)cyclobutyl]-3-methylpyridine-2-carboxamide], more than 75%. As for `Cc1nc(C(F)(F)F)c(C(=O)N[C@H]2CC[C@H]2c2ccc(Cl)cc2Cl)s1` [Compound 61.93, N-[(1S,2S)-2-(2,4-dichlorophenyl)cyclobutyl]-2-methyl-4-(trifluoromethyl)-1,3-thiazole-5-carboxamide], the pest or weed control at 200 ppm (24 h) was more than 75%. Consider `O=C(N[C@H]1CC[C@H]1c1ccc(Cl)cc1Cl)c1ccsc1I` [Compound 61.96, N-[(1S,2S)-2-(2,4-dichlorophenyl)cyclobutyl]-2-iodothiophene-3-carboxamide], for which, under setting [1], the pest or weed control at 200 ppm is more than 75%.

Consider `O=C(N[C@H]1CC[C@H]1c1ccc(Cl)cc1Cl)c1ccsc1C(F)(F)F` [Compound 61.97, N-[(1S,2S)-2-(2,4-dichlorophenyl)cyclobutyl]-2-(trifluoromethyl)thiophene-3-carboxamide], for which, under setting [1], the pest or weed control at 200 ppm was more than 75%.

For `O=C(N[C@H]1CC[C@H]1c1ccc(Cl)cc1Cl)c1ncsc1Br` [Compound 61.98, 5-bromo-N-[(1S,2S)-2-(2,4-dichlorophenyl)cyclobutyl]-1,3-thiazole-4-carboxamide], under setting [1], the pest or weed control at 200 ppm is more than 75%. The same measure, in the same setting: to `Cc1cccnc1C(=O)N[C@H]1CC[C@H]1c1ccc(F)cc1F` [Compound 61.108, N-[(1S,2S)-2-(2,4-difluorophenyl)cyclobutyl]-3-methylpyridine-2-carboxamide] belongs more than 75%; to `Cc1ccccc1C(=O)N[C@H]1CC[C@H]1c1ccc(F)cc1F` [Compound 61.109, N-[(1S,2S)-2-(2,4-difluorophenyl)cyclobutyl]-2-methylbenzamide], more than 75%. On to `O=C(N[C@H]1CC[C@H]1c1ccc(F)cc1F)c1ncccn1` [Compound 61.110, N-[(1S,2S)-2-(2,4-difluorophenyl)cyclobutyl]pyrimidine-2-carboxamide], for which, under setting [1], the pest or weed control at 200 ppm is more than 75%. The same measure, in the same setting: to `O=C(N[C@H]1CC[C@H]1c1ccc(F)cc1F)c1ccccc1Cl` [Compound 61.113, 2-chloro-N-[(1S,2S)-2-(2,4-difluorophenyl)cyclobutyl]benzamide] belongs more than 75%; to `O=C(N[C@H]1CC[C@H]1c1ccc(F)cc1F)c1cnccc1C(F)(F)F` [Compound 61.114, N-[(1S,2S)-2-(2,4-difluorophenyl)cyclobutyl]-4-(trifluoromethyl)pyridine-3-carboxamide], more than 75%; to `O=C(N[C@H]1CC[C@H]1c1ccc(F)cc1F)c1ccccc1Br` [Compound 61.116, 2-bromo-N-[(1S,2S)-2-(2,4-difluorophenyl)cyclobutyl]benzamide], more than 75%. Still for that read-out and setting: to `O=C(N[C@H]1CC[C@H]1c1ccc(F)cc1F)c1c(F)cccc1Cl` [Compound 61.117, 2-chloro-N-[(1S,2S)-2-(2,4-difluorophenyl)cyclobutyl]-6-fluorobenzamide] belongs more than 75%. On the same count and under the same terms, to `Cc1cccc(F)c1C(=O)N[C@H]1CC[C@H]1c1ccc(F)cc1F` [Compound 61.118, N-[(1S,2S)-2-(2,4-difluorophenyl)cyclobutyl]-2-fluoro-6-methylbenzamide] belongs more than 75%.

With `Cc1nccnc1C(=O)N[C@H]1CC[C@H]1c1ccc(F)cc1F` [Compound 61.119, N-[(1S,2S)-2-(2,4-difluorophenyl)cyclobutyl]-3-methylpyrazine-2-carboxamide], under setting [1], the pest or weed control at 200 ppm is more than 75%. Same read-out and setting: the figure for `O=C(N[C@H]1CC[C@H]1c1ccc(F)cc1F)c1ccccc1F` [Compound 61.121, N-[(1S,2S)-2-(2,4-difluorophenyl)cyclobutyl]-2-fluorobenzamide] is more than 75%. Still for that read-out and setting: the figure for `O=C(N[C@H]1CC[C@H]1c1ccc(F)cc1F)c1cncnc1C(F)(F)F` [Compound 61.122, N-[(1S,2S)-2-(2,4-difluorophenyl)cyclobutyl]-4-(trifluoromethyl)pyrimidine-5-carboxamide] is more than 75%; for `O=C(N[C@H]1CC[C@H]1c1ccc(F)cc1F)c1ncccc1F` [Compound 61.124, N-[(1S,2S)-2-(2,4-difluorophenyl)cyclobutyl]-3-fluoropyridine-2-carboxamide] it is more than 75%. The same measure, in the same setting: the figure for `O=C(N[C@H]1CC[C@H]1c1ccc(F)cc1F)c1ccccc1I` [Compound 61.125, N-[(1S,2S)-2-(2,4-difluorophenyl)cyclobutyl]-2-iodobenzamide] is more than 75%; for `Cn1cccc1C(=O)N[C@H]1CC[C@H]1c1ccc(F)cc1F` [Compound 61.126, N-[(1S,2S)-2-(2,4-difluorophenyl)cyclobutyl]-1-methylpyrrole-2-carboxamide] it is more than 75%; for `Cn1cc(C(=O)N[C@H]2CC[C@H]2c2ccc(F)cc2F)c(C(F)F)n1` [Compound 61.127, 3-(difluoromethyl)-N-[(1S,2S)-2-(2,4-difluorophenyl)cyclobutyl]-1-methylpyrazole-4-carboxamide] it is more than 75%.

Regarding `O=C(N[C@H]1CC[C@H]1c1ccc(F)cc1F)c1sccc1Cl` [Compound 61.129, 3-chloro-N-[(1S,2S)-2-(2,4-difluorophenyl)cyclobutyl]thiophene-2-carboxamide], the pest or weed control at 200 ppm under setting [1] is more than 75%. On the same count and under the same terms, to `O=C(N[C@H]1CC[C@H]1c1ccc(F)cc1F)c1c(F)cccc1C(F)(F)F` [Compound 61.131, N-[(1S,2S)-2-(2,4-difluorophenyl)cyclobutyl]-2-fluoro-6-(trifluoromethyl)benzamide] belongs more than 75%; to `O=C(N[C@H]1CC[C@H]1c1ccc(F)cc1F)c1cccnc1Cl` [Compound 61.133, 2-chloro-N-[(1S,2S)-2-(2,4-difluorophenyl)cyclobutyl]pyridine-3-carboxamide], more than 75%. Still for that read-out and setting: the figure for `O=C(N[C@H]1CC[C@H]1c1ccc(F)cc1F)c1ncsc1Br` [Compound 61.136, 5-bromo-N-[(1S,2S)-2-(2,4-difluorophenyl)cyclobutyl]-1,3-thiazole-4-carboxamide] is more than 75%. For the compound `O=C(N[C@H]1CC[C@H]1c1ccc(F)cc1F)c1ccsc1C(F)(F)F` [Compound 61.137, N-[(1S,2S)-2-(2,4-difluorophenyl)cyclobutyl]-2-(trifluoromethyl)thiophene-3-carboxamide], the pest or weed control at 200 ppm under setting [1] is more than 75%. Still for that read-out and setting: to `Cc1ncccc1C(=O)N[C@H]1CC[C@H]1c1ccc(F)cc1F` [Compound 61.140, N-[(1S,2S)-2-(2,4-difluorophenyl)cyclobutyl]-2-methylpyridine-3-carboxamide] belongs more than 75%; to `O=C(N[C@H]1CC[C@H]1c1ccc(F)cc1F)c1ncccc1Cl` [Compound 61.141, 3-chloro-N-[(1S,2S)-2-(2,4-difluorophenyl)cyclobutyl]pyridine-2-carboxamide], more than 75%; to `O=C(N[C@H]1CC[C@H]1c1ccc(F)cc1F)c1sccc1Br` [Compound 61.143, 3-bromo-N-[(1S,2S)-2-(2,4-difluorophenyl)cyclobutyl]thiophene-2-carboxamide], more than 75%. Regarding `Cc1occc1C(=O)N[C@H]1CC[C@H]1c1ccc(F)cc1F` [Compound 61.144, N-[(1S,2S)-2-(2,4-difluorophenyl)cyclobutyl]-2-methylfuran-3-carboxamide], under setting [1], the pest or weed control at 200 ppm was more than 75%.
